Read-outs that look alike come from different tables or passages of the source. Positions of bridges follow the written chain, without caps; N, C: chain ends. Non-standard residues stand in square brackets, D forms with d. Residues, ends and D or L forms follow the SMILES beside them. R8 = C=CCCCCCC[C@@](C)(N)C(=O)O; S5 = C=CCCC[C@](C)(N)C(=O)O
Legend:
[1] = Lactate dehydrogenase (LDH) release assay; assay type: cell-based
How it was run: (§1)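 Membrane damage measured as lactate dehydrogenase release (CytoTox-ONE kit) from p53-responsive β-lactamase reporter HCT116 cells plated at 8000 per well. Final DMSO 0.5%; geometric mean reported from a minimum of three biological replicates.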

HCT116 cells = assay: Lactate dehydrogenase (LDH) release assay; assay type: cell-based
How it was run: as §1

[2] = test system: Jump-In T-REx CHO-K1 BLA cells; assay: cells; assay type: cell-based
[3] = Circular dichroism (CD) helicity; assay type: physicochemical
Procedure: A total of 5 µL of the 10 mM stock peptide was mixed with 45 µL of 100% methanol, and dried for 2 h in the SpeedVac concentrator (Thermo Scientific). The dried peptide was reconstituted in a buffer (1 mM Hepes pH 7.4 and 5% methanol) to a concentration of 1 mM. The peptide sample was placed in a quartz cuvette with a path length of 0.2 cm. The peptide concentration was determined by the absorbance of the peptide at […]. The CD spectrum was recorded from 300 to 190 nm using the Chirascan-plus qCD machine (Applied Photophysics, Surrey, UK), at 25 °C. All experiments were done in duplicates. The CD spectrum was converted to mean residue ellipticity before deconvolution and estimation of the secondary structure components of the peptide using the CDNN software (distributed by Applied Photophysics). Measurements were taken at least twice and were reported as arithmetic means.

[4] = test system: p53 responsive β-lactamase reporter in HCT116 cells; assay: cells; assay type: cell-based
How it was run: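 HCT116 cells stably carrying a p53-responsive β-lactamase reporter, seeded at 8000 cells/well, with 0.5% DMSO final. Reporter activity read by ToxBLAzer Dual Screen. Values are geometric means of at least three biological replicates.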

human Mdm2 1–125 = target: T1, human Mdm2 1–125 (Homo sapiens, UniProt Q00987); assay: Mdm2 binding by competitive fluorescence anisotropy assay (FP binding); conditions: read-out: FP binding assay KD
T1 construct: GST (N); His6 (internal); TEV cleavage site (ENLYFQG) (internal); made in house; host or cells: BL21 (DE3) Rosetta T1R Escherichia coli
T1 sequence (Q00987 with tags, fused parts or gaps): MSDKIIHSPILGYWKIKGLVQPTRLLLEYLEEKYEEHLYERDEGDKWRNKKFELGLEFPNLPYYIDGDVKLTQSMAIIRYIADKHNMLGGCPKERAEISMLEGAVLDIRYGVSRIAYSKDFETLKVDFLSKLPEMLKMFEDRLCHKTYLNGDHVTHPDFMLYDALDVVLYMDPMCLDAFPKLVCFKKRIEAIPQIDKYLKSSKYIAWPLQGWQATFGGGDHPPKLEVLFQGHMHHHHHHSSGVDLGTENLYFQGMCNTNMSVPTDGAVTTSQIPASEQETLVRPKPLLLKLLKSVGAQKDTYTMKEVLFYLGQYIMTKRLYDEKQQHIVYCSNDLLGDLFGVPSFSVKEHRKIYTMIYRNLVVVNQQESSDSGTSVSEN

[5] = 0% FBS 4Hr, read-out: LDH: Cytotoxicity assay: EC50
[6] = 0% FBS 4Hr, read-out: TETCHO: Counterscreen EC50
[7] = 0% FBS 4Hr, read-out: p53 reporter assay: EC50
[8] = 10% FBS 16Hr, read-out: TETCHO: Counterscreen EC50
[9] = read-out: Cell EC50 (4 hr, 0% FBS), p53 reporter assay, 4 hr, 0% FBS
[10] = read-out: Cell EC50 (16 hr, 10% FBS), p53 reporter assay, 16 hr, 10% FBS

Structure (SMILES) | EC50 [1, 5] [µM] | LDH: Cytotoxicity assay: % Effect (HCT116 cells; 0% FBS 4Hr) [%] | TETCHO: Counterscreen % Effect ([2]; 0% FBS 4Hr) [%] | EC50 [2, 6] [µM] | CD % Helicity [3] [%] | EC50 [4, 7] [µM] | EC50 [2, 8] [µM] | EC50 [4, 9] [µM] | EC50 [4, 10] [µM] | further results
CC(=O)N[C@@H](CC(C)C)C(=O)N[C@H](C(=O)N[C@@H](Cc1ccccc1)C(=O)N[C@]1(C)CCCCCCC=CCCC[C@@](C)(C(=O)N[C@@H](CO)C(=O)N[C@@H](C)C(=O)N[C@@H](C)C(N)=O)NC(=O)[C@H](CC2CCC2)NC(=O)[C@H](Cc2c[nH]cn2)NC(=O)[C@H](C)NC(=O)[C@H](Cc2c[nH]c3ccccc23)NC(=O)[C@H](Cc2ccc(O)cc2)NC(=O)[C@H](CCC(=O)O)NC1=O)[C@@H](C)O [MP-501, ATSP-7041 (Q8H)] | > 50 | 4.045 | 216 | 18.9 | 29.1 | 2.5 |  |  |  | TETCHO Counterscreen % Effect ([2]; 4 hours, 0% serum, efficacy at 50 μM relative to tetracycline control): 216%; EC50 ([2]; 4 hours, 0% serum, read-out: TETCHO Counterscreen EC50): 18.9 µM; EC50 ([4]; 0% FBS 16Hr, read-out: p53 reporter assay: EC50): 28.6 µM
CC(=O)N[C@@H](CC(C)C)C(=O)N[C@H](C(=O)N[C@@H](Cc1ccccc1)C(=O)N[C@]1(C)CCCCCCC=CCCC[C@@](C)(C(=O)N[C@@H](C)C(=O)N[C@@H](C)C(=O)N[C@@H](C)C(=O)N[C@@H](C)C(=O)N[C@@H](C)C(=O)N[C@@H](C)C(N)=O)NC(=O)[C@H](CC(C)C)NC(=O)[C@H](CCC(N)=O)NC(=O)[C@H](C)NC(=O)[C@H](Cc2c[nH]c3ccccc23)NC(=O)[C@H](Cc2ccc(O)cc2)NC(=O)[C@H](CCC(=O)O)NC1=O)[C@@H](C)O [MP-688] (Ac-LTF[R8]EYWAQL[S5]AAAAAA-NH2; staple 4-11) |  |  |  | > 50.4 | 49.8 |  | > 50.4 | 0.16 | 1.3 | EC50 ([1]; 0% FBS 4Hr, read-out: LDH: Cytotoxicity assay EC50): > 50.7 µM; EC50 ([1]; 10% FBS 16Hr, read-out: LDH: Cytotoxicity assay EC50): > 50.7 µM; Aqueous solution helicity ([3]; circular dichroism): 49.8%; EC50 ([4]; 0% FBS 4Hr, read-out: p53 reporter assay EC50): 0.157 µM; EC50 ([4]; 10% FBS 16Hr, read-out: p53 reporter assay EC50): 1.35 µM
CC(=O)N[C@@H](CCCCN=[N+]=[N-])C(=O)NCCC(=O)N[C@@H](CC(C)C)C(=O)N[C@H](C(=O)N[C@@H](Cc1ccccc1)C(=O)N[C@]1(C)CCCCCCn2cc(nn2)CCC[C@@](C)(C(=O)N[C@@H](CO)C(=O)N[C@@H](C)C(=O)N[C@@H](C)C(N)=O)NC(=O)[C@H](CC2CCC2)NC(=O)[C@H](CCC(N)=O)NC(=O)[C@H](C)NC(=O)[C@H](Cc2c[nH]c3ccccc23)NC(=O)[C@H](Cc2ccc(O)cc2)NC(=O)[C@H](CCC(=O)O)NC1=O)[C@@H](C)O [MP-707] | > 50.7 | -2.492 | -1.105 | > 50.4 | 33.95 | 1.6 | > 50.4 | 1.6 | 13.6 | EC50 ([1]; 10% FBS 16Hr, read-out: LDH: Cytotoxicity assay: EC50): > 50.7 µM; LDH: Cytotoxicity assay: % Effect (HCT116 cells; 10% FBS 16Hr): 13.49%; TETCHO: Counterscreen % Effect ([2]; 10% FBS 16Hr): -2.89%; p53 reporter assay: % Effect ([4]; 0% FBS 4Hr): 101.9%; p53 reporter assay: % Effect ([4]; 10% FBS 16Hr): 63.44%; EC50 ([4]; 10% FBS 16Hr, read-out: p53 reporter assay: EC50): 13.6 µM
CC(=O)N[C@H](C(=O)N[C@@H](CO)C(=O)NC(C)(Cc1ccccc1)C(=O)N[C@@H]1CCCCCCC=CCCC[C@@H](C(N)=O)NC(=O)C(C)(CC(C)C)NC(=O)[C@H](CC(C)C)NC(=O)[C@H](C)NC(=O)[C@H](Cc2c[nH]c3ccccc23)NC(=O)[C@H](Cc2ccc(O)cc2)NC(=O)[C@H](CCC(=O)O)NC1=O)[C@@H](C)O (stereo partly drawn) [MP-792] |  |  | 20.04 | 48.9 | 25.3 | 12.2 |  |  |  | Kd (human Mdm2 1–125): 0.199 µM; EC50 ([1]; LDH: Cytotoxicity assay: EC50): > 50 µM; LDH: Cytotoxicity assay: % Effect (HCT116 cells): 10.77%; TETCHO: Counterscreen % Effect ([2]; 0% FBS 16Hr): -1.02%
